Test results reported in the NIST ThermoML archive (doi:10.1016/j.fluid.2016.03.016).

Assay: mn = molality of the nth substance listed, in mol/kg
Conditions: 100 kPa, Liquid, Vibrating tube method

O=C[C@H](O)[C@@H](O)[C@H](O)[C@H](O)CO [D-glucose] + O
mass density [kg/m3]
Conditions	m1 = 0.04761	m1 = 0.08797	m1 = 0.09893	m1 = 0.1276	m1 = 0.1555	m1 = 0.1767	m1 = 0.2008
288.15 K	1002.39	1005.11	1005.85	–	1009.58	1010.96	1012.51
298.15 K	1000.27	1002.97	1003.7	1005.58	–	–	1010.31
308.15 K	997.256	999.92	1000.64	1002.5	1004.29	1005.64	–
318.15 K	993.41	996.056	996.767	998.624	1000.4	1001.75	1003.26

O=C[C@H](O)[C@@H](O)[C@H](O)CO [D-xylose] + O
mass density [kg/m3]
Conditions	m1 = 0.05973	m1 = 0.06763	m1 = 0.09347	m1 = 0.1376	m1 = 0.1501	m1 = 0.1698	m1 = 0.1873
288.15 K	1002.39	1002.82	1004.22	1006.58	1007.24	1008.28	1009.21
298.15 K	1000.28	1000.71	1002.09	1004.43	1005.09	1006.12	1007.03
308.15 K	997.274	997.695	999.067	1001.39	1002.04	1003.07	1003.97
318.15 K	993.436	993.851	995.213	997.518	998.164	999.183	1000.08

C[NH+]1CCCC1=O.O=C[O-] [N-methyl-2-oxopyrrolidinium formate] + O
mass density [kg/m3]
Conditions	288.15 K	298.15 K	308.15 K	318.15 K
m1 = 0.1	1000.87	998.697	995.571	991.633
m1 = 0.15	1001.64	999.401	996.217	992.225
m1 = 0.2	1002.42	1000.1	996.862	992.816
m1 = 0.25	1003.19	1000.81	997.508	993.408

CCC(=O)[O-].C[NH+]1CCCC1=O [N-methyl-2-oxopyrrolidinium propionate] + O
mass density [kg/m3]
Conditions	288.15 K	298.15 K	308.15 K	318.15 K
m1 = 0.1	1000.28	998.097	994.976	990.978
m1 = 0.15	1000.81	998.566	995.384	991.337
m1 = 0.2	1001.35	999.034	995.792	991.696
m1 = 0.25	1001.89	999.503	996.2	992.055

O [water] + O=C[C@H](O)[C@@H](O)[C@H](O)[C@H](O)CO
Conditions	mass density [kg/m3]
308.15 K, m2 = 0	994.063
